The source of these data is article PMC8540948, “Design and Synthesis of Newly Synthesized Acrylamide Derivatives as Potential Chemotherapeutic Agents against MCF-7 Breast Cancer Cell Line Lodged on PEGylated Bilosomal Nano-Vesicles for Improving Cytotoxic Activity” (Pharmaceuticals, 2021).

For data set [1], the system named is normal breast cell line (MCF-10A). Kind of data set: MTT cytotoxicity against normal breast cell line MCF-10A. It counts as cell-based. Particulars: MTT assay. On the procedure: Compounds 2–5d were evaluated for their cytotoxic activities against breast cancer MCF-7 cell line by using an MTT colorimetric assay. Cisplatin was used as reference drug in this study. […] Additionally, the therapeutic safety of N-(3-hydroxy-4-methoxy) aryl amide derivative 4e was determined by screening its cytotoxic activity against normal breast cell line (MCF-10A) using an MTT colorimetric assay.
(§1) Cytotoxic activity of the newly prepared acrylamide derivatives 2–5d were carried out against breast MCF-7 cancer cell line using the MTT assay method. Compound 4e was screened for its effects on normal breast cell line MCF-10A. Cells at density of 1 × 10^4 were seeded in a 96-well plate at 37 °C for 48 h under 5% CO2. After incubation, the cells were treated with different concentrations of the test compounds and incubated for 24 h. After 24 h of drug treatment, 20 μL of MTT solution at 5 mg/mL was applied and incubated for 4 h at 37 °C. Dimethyl sulphoxide (DMSO) in volume of 100 µL was added to each well to dissolve the purple formazan that had formed. The color intensity of the formazan product, which represents the growth condition of the cells, is quantified by using an ELISA plate reader (EXL 800, USA) at 570 nm absorbance. The experimental conditions were carried out with at least three replicates, and the experiments were repeated at least three times.
(In general: Formazan colour is commonly taken as a measure of viable cells.)

Data set [2] has as its system breast cancer MCF-7 cell line. In words: MTT cytotoxicity against breast cancer MCF-7 cell line. Type of data set: cell-based. Particulars: MTT assay, 24 h drug treatment. As for the experimental part:
Compounds 2–5d were evaluated for their cytotoxic activities against breast cancer MCF-7 cell line by using an MTT colorimetric assay. Cisplatin was used as reference drug in this study. […] Additionally, the therapeutic safety of N-(3-hydroxy-4-methoxy) aryl amide derivative 4e was determined by screening its cytotoxic activity against normal breast cell line (MCF-10A) using an MTT colorimetric assay. […]
as §1

For a further data set, the system named is β-tubulin. In words: β-tubulin inhibition percentage by ELISA (tubulin polymerization inhibition). It counts as biochemical. To be noted: 5 μM concentration. In general terms: ELISA stands for enzyme-linked immunosorbent assay.
For the next data set, the system named is MCF-7 cells. Kind of data set: Cell cycle analysis by DNA flow cytometry. Type of data set: cell-based. Particulars: MCF-7, 48 h, 4e at IC50 (2.11 μM), PTX 0.1 μM. On the procedure:
In order to study the mechanism of the cytotoxic activity of compound 4e, cell cycle analysis was investigated in breast cancer MCF-7 cells by DNA flow cytometry analysis at IC50 dose values of compound 4e for 48 h. Paclitaxel (PTX, 0.1 μM) was used as the reference drug in this study.
MCF-7 cells (2 × 10^5/well) were harvested and washed twice in PBS. After that, the cells were incubated at 37 °C and 5% CO2. The medium was replaced with DMSO 1% v/v containing the tested compound 4e (2.11 μM) and PTX (0.1 μM), then incubated for 48 h, washed twice in PBS, fixed with 70% ethanol, rinsed again with PBS and then stained with DNA fluorochrome PI for 15 min at 37 °C. The samples were analyzed by flow cytometry on a FACS Calibur flow cytometer (Becton and Dickinson, Heidelberg, Germany).
For orientation: A flow cytometer gives signals particle by particle.

The test system of the next data set is tubulin assembly. Also noted: method as in PMID 25721862. To be noted: cited from earlier work.

By IC50 is commonly meant the concentration at which inhibition is half-maximal. In the case of `N.N.[Cl][Pt][Cl]` [Cisplatin, reference compound], the IC50 in data set [1] is 22.62 ± 0.19 µM; in data set [2], 1.02 ± 0.12 µM.

By melting point is commonly meant the temperature of the solid-liquid transition. For the molecule `CCOC(=O)C(=Cc1ccco1)NC(=O)c1cc(OC)c(OC)c(OC)c1` [Compound 2, Ethyl 3-(Furan-2-yl)-2-(3,4,5-trimethoxybenzamido)acrylate], the melting point was in the range of 126 to 128 °C. Further, the IC50 in data set [2] (Homo sapiens, MCF7, 24 h) is > 50 µM.

`COc1cc(C(=O)NC(=Cc2ccco2)C(=O)NC(C)C)cc(OC)c1OC` [Compound 3, N-[1-(Furan-2-yl)-3-(isopropylamino)-3-oxoprop-1-en-2-yl]-3,4,5-trimethoxybenzamide]: the melting point lay in the range of 168 to 170 °C. The molecule further had an IC50 in data set [2] (Homo sapiens, MCF7, 24 h) of 4.73 ± 0.27 µM.

Regarding `COc1cc(C(=O)NC(=Cc2ccco2)C(=O)Nc2ccccc2C)cc(OC)c1OC` [Compound 4a, N-[1-(Furan-2-yl)-3-oxo-3-(o-tolylamino)prop-1-en-2-yl]-3,4,5-trimethoxybenzamide], the melting point was in the range of 222 to 224 °C. The molecule further showed an IC50 in data set [2] (Homo sapiens, MCF7, 24 h) of 27.3 ± 1.21 µM.

The molecule `COc1cc(C(=O)NC(=Cc2ccco2)C(=O)Nc2cccc(C)c2)cc(OC)c1OC` [Compound 4b, N-[1-(Furan-2-yl)-3-oxo-3-(m-tolylamino)prop-1-en-2-yl]-3,4,5-trimethoxybenzamide] showed a melting point of 217 to 219 °C. Moreover, the IC50 in data set [2] (Homo sapiens, MCF7, 24 h) worked out at 10.4 ± 1.09 µM.

For the molecule `COc1ccc(NC(=O)C(=Cc2ccco2)NC(=O)c2cc(OC)c(OC)c(OC)c2)cc1` [Compound 4c, N-[1-(Furan-2-yl)-3-(4-methoxyphenylamino)-3-oxoprop-1-en-2-yl]-3,4,5-trimethoxybenzamide], the melting point is 249 to 251 °C. The same molecule returned a half-maximal inhibitory concentration (IC50) in data set [2] (Homo sapiens, MCF7, 24 h) of 26.2 ± 1.21 µM.

Turning to `COc1cc(C(=O)NC(=Cc2ccco2)C(=O)Nc2ccc(O)cc2)cc(OC)c1OC` [Compound 4d, N-[1-(Furan-2-yl)-3-(4-hydroxyphenylamino)-3-oxoprop-1-en-2-yl]-3,4,5-trimethoxybenzamide], the melting point was in the range of 214 to 216 °C. Half-maximal inhibition in data set [2] (Homo sapiens, MCF7, 24 h) (IC50) required 18.4 ± 1.14 µM.

In the case of `COc1ccc(NC(=O)C(=Cc2ccco2)NC(=O)c2cc(OC)c(OC)c(OC)c2)cc1O` [Compound 4e, N-[1-(Furan-2-yl)-3-(3-hydroxy-4-methoxyphenylamino)-3-oxoprop-1-en-2-yl]-3,4,5-trimethoxybenzamide], the β-tubulin inhibition percentage with β-tubulin is given as 89%. The IC50 in data set [1] (Homo sapiens) turned out to be 29.3 ± 1.21 µM; in data set [2] (Homo sapiens, MCF7, 24 h), 2.11 ± 0.19 µM. In the data set with MCF-7 cells (untreated control 1.73%), the “percentage of cells in pre-G1 phase” value is on record as 24.62%. Besides, in the data set with MCF-7 cells (untreated control 8.39%), the “percentage of cells in G2/M phase” value stood at 42.50%.

The molecule `COc1cc(C(=O)NC(=Cc2ccco2)C(=O)NCc2cccc(C)c2)cc(OC)c1OC` [Compound 5a, N-[1-(Furan-2-yl)-3-((3-methylbenzyl)amino)-3-oxoprop-1-en-2-yl]-3,4,5-trimethoxybenzamide] yielded a melting point of 175 to 177 °C. In addition, the IC50 in data set [2] (Homo sapiens, MCF7, 24 h) was found to be 3.92 ± 0.21 µM.

In the case of `COc1ccccc1CNC(=O)C(=Cc1ccco1)NC(=O)c1cc(OC)c(OC)c(OC)c1` [Compound 5b, N-[1-(Furan-2-yl)-3-((2-methoxybenzyl)amino)-3-oxoprop-1-en-2-yl]-3,4,5-trimethoxybenzamide], the melting point lay in the range of 166 to 168 °C. In data set [2] (Homo sapiens, MCF7, 24 h), 5.03 ± 1.01 µM corresponded to half-maximal inhibition (IC50).

For the molecule `COc1cccc(CNC(=O)C(=Cc2ccco2)NC(=O)c2cc(OC)c(OC)c(OC)c2)c1` [Compound 5c, N-[1-(Furan-2-yl)-3-(3-methoxybenzylamino)-3-oxoprop-1-en-2-yl]-3,4,5-trimethoxybenzamide], the melting point was in the range of 164 to 166 °C. In data set [2] (Homo sapiens, MCF7, 24 h), this molecule came in with a concentration for half-maximal inhibition (IC50) of 2.61 µM. The molecule further came in with an IC50 in data set [2] of 3.03 ± 0.39 µM.

`COc1ccc(CNC(=O)C(=Cc2ccco2)NC(=O)c2cc(OC)c(OC)c(OC)c2)cc1OC` [Compound 5d, N-[3-((3,4-Dimethoxybenzyl)amino)-1-(furan-2-yl)-3-oxoprop-1-en-2-yl]-3,4,5-trimethoxybenzamide] came in with a melting point of 124 to 126 °C. The molecule further displayed an IC50 in data set [2] (Homo sapiens, MCF7, 24 h) of 2.61 ± 0.32 µM.

On to `COc1ccc(C(=O)/C=C/c2cc(C(=O)c3cc(OC)c(OC)c(OC)c3)ccc2OC)cc1N` [Compound IV], for which the IC50 in the data set on tubulin assembly is 0.6 µM.
